Source: ChEMBL document CHEMBL1201862, “PubChem BioAssay data set” (2004)
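Test compounds were applied to cells in 96-well plates for 48 hours at 5 doses. The concentration for 50% growth inhibition is given as GI50.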 Calls of active or inactive are those of the source. Cut-off read from the data, not from the text of the source: active = GI50 up to about 1.1 µM and inactive = higher.

Legend:
Experiment in all cases: NCI anticancer screen, dose series, 48 h
SW-620 = test system: SW-620
DU-145 = test system: DU-145
NCI-H460 = test system: NCI-H460
SF-268 = test system: SF-268
SK-OV-3 = test system: SK-OV-3
K562 = test system: K562
OVCAR-8 = test system: OVCAR-8
NCI/ADR-RES = test system: NCI/ADR-RES
SNB-75 = test system: SNB-75
A498 = test system: A498
Malme-3M = test system: Malme-3M
HCT-15 = test system: HCT-15
MDA-N = test system: MDA-N
MDA-MB-231 = test system: MDA-MB-231
SK-MEL-5 = test system: SK-MEL-5
UO-31 = test system: UO-31
HCC 2998 = test system: HCC 2998
HOP-62 = test system: HOP-62
KM12 = test system: KM12
SK-MEL-28 = test system: SK-MEL-28
MCF7 = test system: MCF7
SK-MEL-2 = test system: SK-MEL-2
COLO 205 = test system: COLO 205
HCT-116 = test system: HCT-116
NCI-H522 = test system: NCI-H522
HL-60 = test system: HL-60
MOLT-4 = test system: MOLT-4
SF-295 = test system: SF-295
OVCAR-4 = test system: OVCAR-4
NCI-H226 = test system: NCI-H226
EKVX = test system: EKVX
OVCAR-3 = test system: OVCAR-3
PC-3 = test system: PC-3
M14 = test system: M14
SR = test system: SR
Hs-578T = test system: Hs-578T
U-251 = test system: U-251
A549 = test system: A549
SN12C = test system: SN12C
RPMI-8226 = test system: RPMI-8226
MDA-MB-435 = test system: MDA-MB-435
T47D = test system: T47D
ACHN = test system: ACHN
IGROV-1 = test system: IGROV-1
SNB-19 = test system: SNB-19
SF-539 = test system: SF-539
RXF 393 = test system: RXF 393
TK-10 = test system: TK-10
UACC-62 = test system: UACC-62
OVCAR-5 = test system: OVCAR-5
CCRF-CEM = test system: CCRF-CEM
CAKI-1 = test system: CAKI-1
NCI-H23 = test system: NCI-H23
HT-29 = test system: HT-29
HOP-92 = test system: HOP-92
786-0 = test system: 786-0
UACC-257 = test system: UACC-257
LOX IMVI = test system: LOX IMVI

COc1ccc(N2C(=O)C3c4[nH]c5ccccc5c4C4CCCCCCCC4C3C2=O)cc1 (stereo not given)
GI50 (SW-620): > 10 µM (inactive)
GI50 (DU-145): > 10 µM (inactive)
GI50 (NCI-H460): > 10 µM (inactive)
GI50 (SF-268): > 10 µM (inactive)
GI50 (SK-OV-3): > 10 µM (inactive)
GI50 (K562): > 10 µM (inactive)
GI50 (OVCAR-8): > 10 µM (inactive)
GI50 (NCI/ADR-RES): > 10 µM (inactive)
GI50 (SNB-75): 5.22 µM (inactive)
GI50 (A498): > 10 µM (inactive)
GI50 (Malme-3M): > 10 µM (inactive)
GI50 (HCT-15): > 10 µM
GI50 (MDA-N): > 10 µM (inactive)
GI50 (MDA-MB-231): > 10 µM (inactive)
GI50 (SK-MEL-5): > 10 µM (inactive)
GI50 (UO-31): > 10 µM (inactive)
GI50 (HCC 2998): > 10 µM (inactive)
GI50 (HOP-62): > 10 µM (inactive)
GI50 (KM12): > 10 µM (inactive)
GI50 (SK-MEL-28): > 10 µM (inactive)
GI50 (MCF7): > 10 µM (inactive)
GI50 (SK-MEL-2): > 10 µM (inactive)
GI50 (COLO 205): > 10 µM (inactive)
GI50 (HCT-116): 1.7 µM (inactive)
GI50 (NCI-H522): > 10 µM (inactive)
GI50 (HL-60): > 10 µM (inactive)
GI50 (MOLT-4): > 10 µM (inactive)
GI50 (SF-295): > 10 µM (inactive)
GI50 (OVCAR-4): > 10 µM (inactive)
GI50 (NCI-H226): > 10 µM (inactive)
GI50 (EKVX): > 10 µM (inactive)
GI50 (OVCAR-3): > 10 µM (inactive)
GI50 (PC-3): > 10 µM (inactive)
GI50 (M14): > 10 µM (inactive)
GI50 (SR): > 10 µM (inactive)
GI50 (Hs-578T): > 10 µM (inactive)
GI50 (U-251): > 10 µM (inactive)
GI50 (A549): > 10 µM (inactive)
GI50 (SN12C): > 10 µM (inactive)
GI50 (RPMI-8226): > 10 µM (inactive)
GI50 (MDA-MB-435): > 10 µM (inactive)
GI50 (T47D): > 10 µM (inactive)
GI50 (ACHN): > 10 µM (inactive)
GI50 (IGROV-1): > 10 µM (inactive)
GI50 (SNB-19): > 10 µM (inactive)
GI50 (SF-539): 6.95 µM (inactive)
GI50 (RXF 393): > 10 µM (inactive)
GI50 (TK-10): > 10 µM (inactive)
GI50 (UACC-62): > 10 µM (inactive)
GI50 (OVCAR-5): > 10 µM (inactive)
GI50 (CCRF-CEM): 2.07 µM (inactive)
GI50 (CAKI-1): > 10 µM (inactive)
GI50 (NCI-H23): > 10 µM (inactive)
GI50 (HT-29): > 10 µM (inactive)

CCOP(C)(=O)C(Nc1ccc(F)cc1)c1ccc(F)cc1 (stereo not given)
GI50 (SW-620): > 100 µM (inactive)
GI50 (DU-145): > 100 µM (inactive)
GI50 (NCI-H460): > 100 µM (inactive)
GI50 (SF-268): > 100 µM (inactive)
GI50 (SK-OV-3): > 100 µM (inactive)
GI50 (K562): > 100 µM (inactive)
GI50 (OVCAR-8): > 100 µM (inactive)
GI50 (NCI/ADR-RES): > 100 µM (inactive)
GI50 (A498): > 100 µM (inactive)
GI50 (Malme-3M): > 100 µM (inactive)
GI50 (HCT-15): > 100 µM
GI50 (MDA-N): > 100 µM (inactive)
GI50 (MDA-MB-231): > 100 µM (inactive)
GI50 (HOP-92): > 100 µM (inactive)
GI50 (SK-MEL-5): > 100 µM (inactive)
GI50 (UO-31): 71.3 µM (inactive)
GI50 (HCC 2998): > 100 µM (inactive)
GI50 (HOP-62): > 100 µM (inactive)
GI50 (786-0): > 100 µM (inactive)
GI50 (KM12): > 100 µM (inactive)
GI50 (SK-MEL-28): > 100 µM (inactive)
GI50 (SK-MEL-2): > 100 µM (inactive)
GI50 (COLO 205): > 100 µM (inactive)
GI50 (HCT-116): > 100 µM (inactive)
GI50 (NCI-H522): > 100 µM (inactive)
GI50 (HL-60): > 100 µM (inactive)
GI50 (MOLT-4): > 100 µM (inactive)
GI50 (SF-295): > 100 µM (inactive)
GI50 (OVCAR-4): > 100 µM (inactive)
GI50 (NCI-H226): > 100 µM (inactive)
GI50 (EKVX): > 100 µM (inactive)
GI50 (OVCAR-3): > 100 µM (inactive)
GI50 (PC-3): > 100 µM (inactive)
GI50 (M14): > 100 µM (inactive)
GI50 (SR): > 100 µM (inactive)
GI50 (Hs-578T): > 100 µM (inactive)
GI50 (UACC-257): > 100 µM (inactive)
GI50 (U-251): > 100 µM (inactive)
GI50 (A549): > 100 µM (inactive)
GI50 (SN12C): > 100 µM (inactive)
GI50 (RPMI-8226): > 100 µM (inactive)
GI50 (MDA-MB-435): > 100 µM (inactive)
GI50 (T47D): > 100 µM (inactive)
GI50 (ACHN): > 100 µM (inactive)
GI50 (IGROV-1): > 100 µM (inactive)
GI50 (SNB-19): > 100 µM (inactive)
GI50 (SF-539): > 100 µM (inactive)
GI50 (RXF 393): > 100 µM (inactive)
GI50 (TK-10): > 100 µM (inactive)
GI50 (UACC-62): > 100 µM (inactive)
GI50 (OVCAR-5): > 100 µM (inactive)
GI50 (CCRF-CEM): > 100 µM (inactive)
GI50 (CAKI-1): > 100 µM (inactive)
GI50 (NCI-H23): > 100 µM (inactive)
GI50 (HT-29): > 100 µM (inactive)
GI50 (LOX IMVI): > 100 µM (inactive)
